According to PMC8998355, “Diversity-Oriented Synthesis Catalyzed by Diethylaminosulfur-Trifluoride—Preparation of New Antitumor Ecdysteroid Derivatives” (International Journal of Molecular Sciences, 2022):

How the values were obtained:
[1] = system: L5178Y mouse T-cell lymphoma cells; assay: MTT cytotoxicity assay (24 h, 1 × 10^4 cells); format: cell-based; conditions: 24 h MTT, n = 3, read-out: Cytotoxicity (IC50 ± SD)
Procedure: (§1) To assess the compounds’ effect on cell growth and viability, we used two different experimental setups of MTT assay. This allowed a comparative evaluation of results obtained from a short-term (24 h) treatment of a relatively higher number (10,000) of cells and those from a long-term (72 h) treatment of a lower cell number (6000), which makes it possible to gain some insight into the cytotoxic vs. cytostatic properties of the compounds. Even though MTT assay is an endpoint detection method, i.e., it provides a single readout of viable cells at the end of the experiment, such a comparison offers a reliable tool to identify antiproliferative activity of compounds that are not cytotoxic.
(§2) L5178Y mouse T-cell lymphoma cells (ECACC Cat. No. 87111908) were obtained from FDA, Silver Spring, MD, USA. These were transfected with pHa MDR1/A retrovirus as described previously. ABCB1-expressing L5178YMDR cells were selected by culturing the infected cells with colchicine. The cell lines were cultured in McCoy’s 5A medium supplemented with 10% heat inactivated horse serum, 2 mM L-glutamine, and penicillin–streptomycin mixture.
(§3) MTT assay was performed in 96-well flat-bottomed microtiter plates as described before. Briefly, a 10 mM concentration stock solution in DMSO was prepared for each compound. These were diluted in 100 μL of McCoy’s 5A medium. Subsequently, 1 × 10^4 (cytotoxicity assay) or 6 × 10^3 (antiproliferative assay) T-cell mouse lymphoma cells in 100 μL of medium were added to each well, except for the medium control wells.
(§4) The culture plates were further incubated at 37 °C for 24 h (cytotoxicity assay) or 72 h (antiproliferative assay); at the end of the incubation period, 20 μL of MTT solution (from a 5 mg/mL stock) was added to each well. After incubation at 37 °C for 4 h, 100 μL of SDS solution (10% in 0.01 M HCI) was added to each well and the plates were further incubated at 37 °C overnight. The cell growth was determined by measuring the optical density at 540 nm (ref. 630 nm) with a Multiscan EX ELISA reader (Thermo Labsystems, Cheshire, WA, USA). IC50 values were calculated by variable slope nonlinear regression using the log(inhibitor) vs. normalized response of GraphPad Prism 5.01 (GraphPad Software Inc., San Diego, CA, USA).

[2] = system: L5178YMDR cells (ABCB1-expressing); assay: MTT cytotoxicity assay (24 h, 1 × 10^4 cells); format: cell-based; conditions: Mus musculus, 24 h MTT, n = 3, read-out: Cytotoxicity (IC50 ± SD)
Procedure: as §1, §2, §3, §4

[3] = MTT cytotoxicity assay (24 h); format: cell-based; conditions: human, MRC-5 human embryonal lung fibroblasts; MRC-5, 24 h MTT, n = 3; read-out: Cytotoxicity (IC50 ± SD)
Procedure: as §1
(§5) MRC-5 human embryonal lung fibroblasts (CCL-171, ATCC) were acquired from Sigma-Aldrich (Merck, KGaA, Darmstadt, Germany), and were cultured in EMEM medium containing 4.5 g/L glucose and supplemented with a non-essential amino acid mixture, a selection of vitamins, and 10% of FBS.
(§6) The adherent human fibroblast cells were seeded in 100 μL of EMEM medium overnight before each assay. Two-fold serial dilutions of the compounds (0.19–100 µM) were prepared in separate plates, then transferred to the plates containing the adherent cell lines.
as §4

[4] = system: L5178Y mouse T-cell lymphoma cells; assay: MTT antiproliferative assay (72 h, 6 × 10^3 cells); format: cell-based; conditions: for IC50: Mus musculus
Procedure: as §1, §2, §3, §4

[5] = system: L5178YMDR cells (ABCB1-expressing); assay: MTT antiproliferative assay (72 h, 6 × 10^3 cells); format: cell-based; conditions: Mus musculus, 72 h MTT, n = 3, read-out: Antiproliferative Effect (IC50 ± SD)
Procedure: as §1, §2, §3, §4

[6] = system: MRC-5 human embryonal lung fibroblasts; assay: MTT antiproliferative assay (72 h); format: cell-based; conditions: for IC50: Homo sapiens, MRC5, MRC-5, 72 h MTT, n = 3, read-out: Antiproliferative Effect (IC50 ± SD)
Procedure: as §1, §5, §6, §4

[7] = molecular target: T1, ABCB1 (Homo sapiens, UniProt P08183); assay: ABCB1 inhibition assay (rhodamine 123 accumulation, flow cytometry); format: cell-based; conditions: human, probe rhodamine 123 (5.2 µM), L5178YMDR, rhodamine 123 accumulation, n = 1
T1 construct: expressed in transfected cells; host or cells: L5178Y mouse T-cell lymphoma cells transfected with pHa MDR1/A retrovirus, selected with colchicine (L5178YMDR)
Procedure: (§7) ABCB1 inhibition was determined by the intracellular accumulation of rhodamin 123 as reported before. Briefly, 2 × 10^6 cells/mL of L5178Y and L5178YMDR cell lines were re-suspended in serum-free McCoy’s 5A medium and distributed in 0.5 mL aliquots into Eppendorf centrifuge tubes. The compounds were added at a final concentration of 2 or 20 μM and the samples were incubated for 10 min at room temperature. Tariquidar was used as positive control and DMSO as negative control; for the latter, no activity was observed. Subsequently, 10 μL (5.2 μM final concentration) of the ABCB1 substrate fluorescent dye rhodamine 123 was added and the cells were incubated further for 20 min at 37 °C, washed twice and re-suspended in 1 mL PBS for analysis. Fluorescence of the cell population was measured with a PartecCyFlow® flow cytometer (Partec, Münster, Germany). Mean fluorescence intensity percentage was calculated for the treated vs. untreated L5178YMDR cells. Inhibition percentage for the treated cells was calculated from the corresponding values of the untreated L5178Y and L5178YMDR cells, representing 100% and 0% inhibition, respectively.

[8] = molecular target: T2, ABCB1 transporter (Homo sapiens, UniProt P08183); assay: as above; format: cell-based; conditions: L5178YMDR, 2 or 20 µM
T2 construct: expressed in transfected cells; host or cells: L5178Y mouse T-cell lymphoma cells transfected with pHa MDR1/A retrovirus, selected with colchicine (L5178YMDR)
Procedure: as §7

[9] = system: L5178YMDR cells; assay: Combination assay with doxorubicin (checkerboard microplate method, MTT); format: cell-based, mouse; design: Dm (antilog of the x-intercept of the median-effect plot): unit not given here; conditions: for CIavg (weighted average CI): (CI50 + 2CI75 + 3CI90)/6
Procedure: Compounds 7, 10, 11, 13, and 14 had sufficient individual antiproliferative properties for their assessment of chemo-sensitizing activity. This was carried out as an antiproliferative assay on L5178YMDR cells in combination with doxorubicin, arranged according to the checkerboard microplate method.
The checkerboard microplate method was used to evaluate the compounds’ interaction with doxorubicin, as described before. Briefly, doxorubicin (2 mg/mL, Teva Pharmaceuticals, Budapest, Hungary) was serially diluted in the horizontal direction (100 µL per well), and the ecdysteroid was subsequently diluted in the vertical direction (50 µL per well). L5178YMDR cells were re-suspended in culture medium and added to each test well in 50 µL to contain 1 × 10^4 cells per well, and 50 µL of medium was added to the medium control wells. The plates were incubated for 72 h at 37 °C in a CO2 incubator and, at the end of the incubation period, the cell growth was determined by MTT assay as described above. Cell viability data were analyzed by the Calcusyn software using the Chou method, and drug interactions were expressed as combination index (CI) values, in which 0 < CI < 1, CI = 1, and CI > 1 refer to synergism, additivity, and antagonism, respectively.

[10] = design: method as in PMID 34825653; conditions: cited from earlier work
[11] = L5178Y, 72 h MTT, n = 3, read-out: Antiproliferative Effect (IC50 ± SD)
[12] = drug ratio 23.2:1, with doxorubicin
[13] = drug ratio 46.4:1, with doxorubicin
[14] = drug ratio 92.8:1, with doxorubicin
[15] = drug ratio 185.6:1, with doxorubicin
[16] = drug ratio 11.6:1, with doxorubicin
[17] = drug ratio 23.1:1, with doxorubicin

SMILES: CC(=O)N[C@H]1CC=C2C3=CC(=O)[C@@H]4C[C@H]5OC(C)(C)O[C@H]5C[C@]4(C)[C@H]3CC[C@@]21C [Compound 13]
- IC50 [1]: > 100 µM
- IC50 [2]: > 100 µM
- IC50 at 24 h [3]: 35 ± 3.2 µM
- IC50 [4, 11]: 4.6 ± 0.8 µM
- IC50 ([4]; text summary for both lymphoma cell lines (L5178Y and L5178YMDR), read-out: antiproliferative activity on the lymphoma cell lines (IC50)): ~4.7 µM
- antiproliferative activity stronger than cytotoxicity ([4]; lymphoma cell lines, ratio of cytotoxic to antiproliferative IC50): over 20 times
- IC50 [5]: 4.8 ± 0.6 µM
- IC50 [6]: 12 ± 1.9 µM
- selective antiproliferative activity against both tumor cell lines ([6]; tumor cell lines vs MRC-5): ca. 2.5 times
- inhibition at 20 min, 2 µM [7]: 0.09%
- inhibition at 20 min, 20 µM [7]: -0.01%
- direct ABCB1 / efflux pump inhibition, in words [8]: inactive
- interaction with doxorubicin, in words ([9]; checkerboard, 72 h): relevant synergism with doxorubicin already at 50% inhibition
- CI at ED75 [9, 12]: 0.55
- CI at ED90 [9, 12]: 0.49
- Dm (antilog of the x-intercept of the median-effect plot) [9, 12]: 8.17
- CIavg (weighted average CI) [9, 12]: 0.53
- CI at ED75 [9, 13]: 0.51
- CI at ED90 [9, 13]: 0.39
- Dm (antilog of the x-intercept of the median-effect plot) [9, 13]: 14.17
- CIavg (weighted average CI) [9, 13]: 0.48
- CI at ED75 [9, 14]: 0.51
- CI at ED90 [9, 14]: 0.47
- Dm (antilog of the x-intercept of the median-effect plot) [9, 14]: 17.54
- CIavg (weighted average CI) [9, 14]: 0.50
- CI at ED75 [9, 15]: 0.68
- CI at ED90 [9, 15]: 0.65
- Dm (antilog of the x-intercept of the median-effect plot) [9, 15]: 29.89
- CIavg (weighted average CI) [9, 15]: 0.67

SMILES: CC(=O)[C@H]1CC[C@@]2(F)C3=CC(=O)[C@@H]4C[C@H]5OC(C)(C)O[C@H]5C[C@]4(C)C3=CC[C@]12C [Compound 7]
- IC50 [1]: 38.6 ± 1.6 µM
- IC50 [2]: 57.5 ± 6.3 µM
- IC50 at 24 h [3]: > 100 µM
- IC50 [4, 11]: 15.2 ± 1.9 µM
- IC50 [5]: 20 ± 2.4 µM
- IC50 [6]: > 100 µM
- inhibition at 20 min, 2 µM [7]: -0.24%
- inhibition at 20 min, 20 µM [7]: 0.29%
- CI at ED75 [9, 16]: 0.76
- CI at ED90 [9, 16]: 0.59
- Dm (antilog of the x-intercept of the median-effect plot) [9, 16]: 4.05
- CIavg (weighted average CI) [9, 16]: 0.71
- CI at ED75 [9, 17]: 1.26
- CI at ED90 [9, 17]: 1.37
- Dm (antilog of the x-intercept of the median-effect plot) [9, 17]: 7.83
- CIavg (weighted average CI) [9, 17]: 1.30
- CI at ED75 [9, 13]: 0.84
- CI at ED90 [9, 13]: 0.60
- Dm (antilog of the x-intercept of the median-effect plot) [9, 13]: 11.56
- CIavg (weighted average CI) [9, 13]: 0.78

SMILES: CC(=O)N[C@H]1CC[C@@]2(F)C3=CC(=O)[C@@H]4C[C@H]5OC(C)(C)O[C@H]5C[C@]4(C)[C@H]3CC[C@]12C [Compound 14]
- IC50 [1]: > 100 µM
- IC50 [2]: > 100 µM
- IC50 at 24 h [3]: > 100 µM
- IC50 [4, 11]: 71.6 ± 1.5 µM
- IC50 [5]: 65.9 ± 2.1 µM
- IC50 [6]: > 100 µM
- inhibition at 20 min, 2 µM [7]: 0.2%
- inhibition at 20 min, 20 µM [7]: -0.12%
- CI at ED75 [9, 12]: 0.73
- CI at ED90 [9, 12]: 0.63
- Dm (antilog of the x-intercept of the median-effect plot) [9, 12]: 9.04
- CIavg (weighted average CI) [9, 12]: 0.70
- CI at ED75 [9, 13]: 0.72
- CI at ED90 [9, 13]: 0.60
- Dm (antilog of the x-intercept of the median-effect plot) [9, 13]: 13.53
- CIavg (weighted average CI) [9, 13]: 0.68
- CI at ED75 [9, 14]: 0.86
- CI at ED90 [9, 14]: 0.74
- Dm (antilog of the x-intercept of the median-effect plot) [9, 14]: 20.47
- CIavg (weighted average CI) [9, 14]: 0.82
- CI at ED75 [9, 15]: 1.26
- CI at ED90 [9, 15]: 1.24
- Dm (antilog of the x-intercept of the median-effect plot) [9, 15]: 30.97
- CIavg (weighted average CI) [9, 15]: 1.25

SMILES: CC(C)(O)CC[C@@H](O)[C@](C)(O)[C@H]1CC[C@@]2(O)C3=CC(=O)[C@@H]4C[C@@H](O)[C@@H](O)C[C@]4(C)[C@H]3CC[C@]12C [20-hydroxyecdysone]
- MasR activity, in words [10]: agonist
